The source of these data is PMC2064598 (The Journal of Cell Biology, 2006).

In one test the target is T1, mGrA (Mus musculus, UniProt P11032).
T1 sequence (P11032 29-260): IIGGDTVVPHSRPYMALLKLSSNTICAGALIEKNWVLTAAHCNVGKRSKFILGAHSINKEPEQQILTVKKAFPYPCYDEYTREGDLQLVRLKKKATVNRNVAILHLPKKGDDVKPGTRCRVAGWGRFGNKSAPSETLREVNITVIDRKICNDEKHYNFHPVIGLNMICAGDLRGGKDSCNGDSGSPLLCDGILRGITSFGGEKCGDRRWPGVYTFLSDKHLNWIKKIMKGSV
The experiment in a line: absorbance progress curve. Type of test: biochemical.

A further test has as its target T2, hGrA (Homo sapiens, UniProt P12544).
T2 sequence (P12544 29-262): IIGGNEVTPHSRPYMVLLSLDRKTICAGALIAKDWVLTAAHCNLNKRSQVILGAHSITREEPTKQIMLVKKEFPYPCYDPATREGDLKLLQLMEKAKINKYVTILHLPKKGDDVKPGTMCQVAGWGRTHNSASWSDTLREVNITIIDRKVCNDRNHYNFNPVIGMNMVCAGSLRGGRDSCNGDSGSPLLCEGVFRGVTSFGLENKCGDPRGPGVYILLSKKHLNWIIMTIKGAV
The experiment in a line: absorbance progress curve. The test is classed as biochemical.

In the case of `NCCCC[C@H](NC(=O)OCc1ccccc1)C(=O)SCc1ccccc1` [benzyloxy-carbonyl-Lys-thiobenzyl ester], the specific activity result at mGrA was “Progress curves of mGrA (closed boxes) and hGrA (open boxes) cleaving benzyloxy-carbonyl-Lys-thiobenzyl ester”; at hGrA, “Progress curves of mGrA (closed boxes) and hGrA (open boxes) cleaving benzyloxy-carbonyl-Lys-thiobenzyl ester”.
